This is an account of results in patent publication US20250248957A1, “CELL DIFFERENTIATION” (JOHN HEMMING TRADING LTD, priority 2022, published 2025).

Holding throughout (assay type): in vivo, human
One assay concerns C reactive protein (CRP). Nature of the assay: CRP level in the blood of the subject. The protocol: (§1) Citrate was administered to the subject in the morning as magnesium and potassium citrate, at lunch time as 10 ml of lemon juice and as calcium and sodium citrate with a total daily citrate dose of 3.95 g. The antioxidant melatonin was administered at night to provide a total nightly dose of between 10 mg and 470 mg.
CRP levels were reduced from 0.5 mg/L to <0.3 mg/L (0.3 mg/L represents the lower limit of detection) following two months of citrate administration. A subsequent measurement of CRP using equipment with higher sensitivity identified a CRP level of below 0.16 mg/L. The Inventor believes that reduced CRP levels result from increased differentiation of senescent stem cells and reduced production of senescent cells via cell dedifferentiation.

Assay [1] in a line: Blood glucose over 24 hour periods by continuous glucose monitor (CGM). To be noted: 2-40 g citrate daily, 10 months; two non-consecutive days; FIGS. 5(d),(e). The protocol: (§2) Citrate was administered to the subject with a total daily citrate dose of between 2 and 40 g for a period of 10 months. Blood glucose levels were measured over separate 24 hour periods using a continuous glucose monitor (CGM) purchased from Dexcom.

Assay [2] in a line: Facial skin quality (number of blemishes). To be noted: 2-40 g citrate daily for 6 weeks; before: 25; FIG. 6. The text has this: Administration of citrate was also found to improve facial skin quality following administration of between 2 and 40 g of citrate daily for a period of 6 weeks.
For the next assay, the system named is hair follicle stem cells. The assay can be described thus: Hair growth on the scalp of a subject after citrate administration. How it is done: as §1, with “Citrate was administered to a subject in the morning as magnesium and potassium citrate and at lunch time as 10 ml of lemon juice to provide a total daily citrate dose of 1.85 g. The antioxidant melatonin was administered at night to provide a total nightly dose of between 10 mg and 470 mg. Citrate was administered daily for four weeks. Citrate” for “Citrate”

Assay [3] has as its system muscle stem cells (satellite cells). Nature of the assay: Muscle mass of the subject after citrate administration. To be noted: total daily citrate dose 3.95 g. How it is done: as §1
The next assay concerns precancerous spot. Nature of the assay: Appearance of a precancerous spot on the skin. To be noted: about 3 g citrate daily for about 3 months; FIG. 7.
Assay [4] can be described thus: Kidney function markers (Cystatin C, creatinine). The text has this: The subject's creatinine levels reached as low as […].
A short description of assay [5]: Concentration of key biomarkers in the blood (HbA1c, folate, glucose). How it is done: as §2
The Inventor also measured haemoglobin A1C (HbA1c) which can be used as a diagnostic marker for diabetes. An HbA1c concentration of >6.4% is indicative of diabetes, and a concentration of 5.7% to 6.4% is indicative of prediabetes.

For `O=C(O)CC(O)(CC(=O)O)C(=O)O` [citrate], in the assay with C reactive protein (CRP) (after two months of citrate, baseline 0.5 mg/L, lower limit of detection 0.3 mg/L), the “CRP level in blood” value was under 0.3 mg/L. Moreover, the “CRP level, subsequent measurement with higher sensitivity equipment” value with C reactive protein (CRP) (subsequent measurement) is reported as “below 0.16 mg/L”. Moreover, the “blood glucose peaks over 24 hour period (CGM)” value in assay [1] is “no significant glucose peaks occurred”. In assay [2], the “number of facial blemishes” value was found to be 20. Besides, in the assay on hair follicle stem cells (topical red or infrared radiation 600-900 nm in addition to citrate), the “hair growth with added red or infrared radiation” value is recorded as “further improved hair growth”. Moreover, the “growth of new hairs in areas of the scalp which had suffered hair loss” value with hair follicle stem cells (total daily citrate dose 1.85 g for four weeks, melatonin at night, FIG. 1) is “growth of new hairs was observed”. The “growth of thicker and darker hairs” value in the assay with hair follicle stem cells (total daily citrate dose 3.95 g, melatonin at night, compared to Example 1, FIGS. 2-4) was “growth of hairs which were thicker and darker”. Also, in assay [3], the muscle mass entry is listed as “An increase in muscle mass”. In the assay with precancerous spot, the “appearance of a precancerous spot on the skin” value is “reduce the appearance of a precancerous spot”. Also, the “creatinine level, lowest reached” value in assay [4] (2-40 g citrate daily, 10 months) was 62 mmol/L. For the same compound, the “Cystatin C level” value in assay [4] (following 3 months of citrate, 2-40 g daily, baseline 0.98 mg/L) came to 0.89 mg/L. Also, in assay [5] (2-40 g citrate daily), the HbA1c level maintained entry is on record as “less than 5.7%” and the “HbA1c level, lowest reached” value is listed as 4.18%. Also, the “Glucose concentration in the blood” value in assay [5] (following 6 months of citrate administration, reference range 3.3-5.6) amounted to 4.53 mmol/L. The “HbA1C in the blood” value in assay [5] (following 6 months of citrate administration, reference range 4-6) is listed as 4.18%.
